Assay results as given in US20100004333A1, “COMPOSITIONS AND METHODS FOR TREATING CARDIOVASCULAR DISORDERS” (priority 2004, published 2010).

What was measured:
[1] = tested on: New Zealand White rabbits; test: Rabbit aortic balloon-injury model: intimal hyperplasia; assay type: in vivo; settings: 9 weeks, FIG. 21; for Protection against balloon injury-induced intimal hyperplasia: 0.02% wt/wt in chow, ABI at end of week three
Method: Rabbit aortic balloon-injury model. Four groups of male New Zealand White rabbits (1.8-2.2 kg, Merunga Farm, Coffs Harbour, Australia), matched for body weight and baseline plasma cholesterol, were fed 100 g per day of normal chow±1% probucol, 0.02% DTBP, or 0.02% BP (wt/wt) for up to nine weeks. Aortic balloon-injury (ABI) was carried out at the end of week three, resulting in complete endothelial denudation. Harvesting of aortas was done after a further 6 weeks (n=6 per group). Aortic lesion assessment was carried out at the 3rd pair of lumber arteries in NZW rabbits as described in Circulation 2003, 107:2031-2036. Statistics. Data are expressed as mean±SEM. One-way ANOVA and the student-Newman-Keul's test were used to evaluate differences between groups, with P<0.05 considered significant.
Materials and methods were as described in Examples 6 and 7, with the following addition. DTBP-s and STBP were synthesized as described in Example 10. A total of 48 New Zealand White rabbits (1.8-2.2 kg) were used for this example. Rabbits were fed normal chow (100 g/day) without (Ctrl, n=12) or with 0.02% DTBP (wt/wt, n=6), 0.02% STBP (wt/wt, n=7), 0.02% DTBP-s (wt/wt, n=11) or 0.1% DTBP-s (wt/wt, n=7) for 9 weeks. Aortic balloon-injury was carried out at the end of week three.

[2] = tested on: Heme oxygenase-1 mRNA; test: HO-1 mRNA by real time RT-PCR in cultured rabbit aortic smooth muscle cells; assay type: cell-based; settings: α-tocopherol 50 μM, 24 hours; FIG. 20A
Method: (§1) Materials and methods were principally as described in Examples 6 and 7. Vitamin E (α-tocopherol for cellular studies, α-tocopheryl acetate for in vivo studies) was obtained from Sigma (St. Louis, Mo.). Heme oxygenase-1 mRNA was assessed by real time RT-PCR in rabbit aortic smooth muscle cells cultured for 24 hours in the presence of vehicle (control), probucol (50 μM) or α-tocopherol (50 μM) as described in (Circulation 2004; 110:1855-1860). Re-endothelialization was assessed by Evans blue staining (Circulation 2003; 107:2031-2036) 3 weeks after injury. Intima-to-media ratio of vessels from control rabbits and animals treated with probucol or α-tocopheryl acetate (n=6 per group) was also determined 3 weeks after aortic balloon injury, using 5 serial sections per aortic segment, 100 μm apart.

[3] = tested on: rabbits; test: Rabbit aortic balloon injury, 3 weeks: re-endothelialization (Evans blue) and intima-to-media ratio, vitamin E; assay type: in vivo; settings: α-tocopheryl acetate
Method: as §1

SMILES	Protection against balloon injury-induced intimal hyperplasia [1]	Protection against intimal hyperplasia: 0.02% DTBP-s compared with 0.1% DTBP-s ([1]; 0.1% wt/wt DTBP-s, P<0.05 versus 0.02% DTBP-s)	Induction of HO-1 (mRNA) in vascular smooth muscle cells [2]	Intimal hyperplasia (intima-to-media ratio) ([3]; 3 weeks after aortic balloon injury, FIG. 20C)	Re-endothelialization (Evans blue) ([3]; 3 weeks after injury, FIG. 20B)
CC(C)(C)c1cc(SSc2cc(C(C)(C)C)c(OC(=O)CCC(=O)O)c(C(C)(C)C)c2)cc(C(C)(C)C)c1O [DTBP-s, 4-(2,6-di-t-butyl-4-((3,5-di-t-butyl-4-hydroxyphenyl)disulfanyl)phenoxy)-4-oxobutanoic acid]	significant protection, albeit less effectively	less effectively as that seen with STBP (0.02%, to wt/wt) and DTBP-s (0.1%, wt/wt)			
CC(C)(C)c1cc(S[Se]c2cc(C(C)(C)C)c(O)c(C(C)(C)C)c2)cc(C(C)(C)C)c1O [STBP, 2,6-di-t-butyl-4-(3,5-di-t-butyl-4-hydroxyphenylselanylthio)phenol]	protected to a comparable extent				
Cc1c(C)c2c(c(C)c1O)CC[C@@](C)(CCC[C@H](C)CCC[C@H](C)CCCC(C)C)O2 [vitamin E, α-tocopherol]			failed to induce HO-1	failed to inhibit intimal hyperplasia	did not promote re-endothelialization
